Test results: the supplement of paper PMC11061612

Legend:
Assay in all cases: combination Emax (second highest fraction inhibited in the dose matrix, 72 h); higher = more inhibition; extreme values may be limits of the assay
[1] = system: EMC-BAC-2 (Non-Small Cell Lung Carcinoma)
Summary of the method: (§1)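 Bliss excess equals the observed combination effect minus the expected value EA + EB − EA·EB, where EA and EB are the effects of each agent alone. Combination Emax is the second-highest inhibition within the matrix. Inhibition was scaled from CellTiter-Glo 2.0 luminescence, with 0 set by vehicle wells and 1 by blank wells, after 72 hours of two-drug dosing of cells plated in 1536-well plates.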

EW-18 (Ewing's Sarcoma) = system: EW-18 (Ewing's Sarcoma)
Summary of the method: as §1

EW-3 (Ewing's Sarcoma) = system: EW-3 (Ewing's Sarcoma)
Summary of the method: as §1

[2] = system: HC-1 (Other Blood Carcinomas)
Summary of the method: as §1

[3] = system: JHH-7 (Hepatocellular Carcinoma)
Summary of the method: as §1

[4] = system: KYSE-150 (Esophageal Squamous Cell Carcinoma)
Summary of the method: as §1

[5] = system: LC4-1 (B-Lymphoblastic Leukemia)
Summary of the method: as §1

[6] = system: LOU-NH91 (Squamous Cell Lung Carcinoma)
Summary of the method: as §1

[7] = system: NCI-H1573 (Lung Adenocarcinoma)
Summary of the method: as §1

[8] = system: NCI-H322M (Lung Adenocarcinoma)
Summary of the method: as §1

[9] = system: OCUB-M (Breast Carcinoma)
Summary of the method: as §1

[10] = system: OVISE (Ovarian Carcinoma)
Summary of the method: as §1

[11] = system: PFSK-1 (Other Solid Carcinomas)
Summary of the method: as §1

U-87-MG (Glioblastoma) = system: U-87-MG (Glioblastoma)
Summary of the method: as §1

SMILES | combination Emax [1] | combination Emax (EW-18 (Ewing's Sarcoma)) | combination Emax (EW-3 (Ewing's Sarcoma)) | combination Emax [2] | combination Emax [3] | combination Emax [4] | combination Emax [5] | combination Emax [6] | combination Emax [7] | combination Emax [8] | combination Emax [9] | combination Emax [10] | combination Emax [11] | combination Emax (U-87-MG (Glioblastoma))
CC1(C)CCC(CN2CCN(c3ccc(C(=O)NS(=O)(=O)c4ccc(NCC5CCOCC5)c([N+](=O)[O-])c4)c(Oc4cnc5[nH]ccc5c4)c3)CC2)=C(c2ccc(Cl)cc2)C1 [Venetoclax] + C[C@@H]1COCCN1C2=NC(=NC(=C2)C3(CC3)[S@](=N)(=O)C)C4=C5C=CNC5=NC=C4 [AZD6738] (first compound max 1 µM, 7x7, partner max 10 µM) | 0.612 | 0.67 | 0.844 | 0.864 | 0.285 | 0.628 | 1 | 0.411 | 0.579 | 0.894 | 0.652 | 0.677 | 0.685 | 0.596
NC1(C(=O)N[C@@H](CCO)c2ccc(Cl)cc2)CCN(c2ncnc3[nH]ccc23)CC1 [Capivasertib] + CCN(CCO)CCCOc1ccc2c(Nc3cc(CC(=O)Nc4cccc(F)c4)[nH]n3)ncnc2c1 [AZD2811] (first compound max 10 µM, 7x7, partner max 1 µM) | 0.564 | 0.811 | 0.595 | 0.629 | 0.294 | 0.536 | 0.905 | 0.519 | 0.323 | 0.338 | 1 | 0.41 | 0.532 | 0.648
Cc1c2c(nn1C)CSCc1cc(n(C)n1)CSc1cc(c3ccccc3c1)OCCCc1c(C(=O)O)n(C)c3c-2c(Cl)ccc13 [AZD5991] + C=CCn1c(=O)c2cnc(Nc3ccc(N4CCN(C)CC4)cc3)nc2n1-c1cccc(C(C)(C)O)n1 [AZD1775] (first compound max 1 µM, partner max 1 µM) | 0.842 | 0.91 | 0.701 | 0.994 | 0.415 | 0.634 | 0.986 | 0.556 | 0.427 | 0.854 | 0.984 | 0.633 | 1 | 0.457
CN(CCO)CC[C@H](CSc1ccccc1)Nc1ccc(S(=O)(=O)NC(=O)c2ccc(N3CCC([C@@H](O)c4ccccc4-c4ccc(Cl)cc4)CC3)cc2)cc1S(=O)(=O)C(F)(F)F [AZD4320] + Cn1cnc2c(F)c(Nc3ccc(Br)cc3Cl)c(C(=O)NOCCO)cc21 [Selumetinib] (first compound max 1 µM, 7x7, partner max 3 µM) | 0.416 | 0.881 | 0.906 | 0.972 | 0.276 | 0.359 | 1 | 0.662 | 0.4 | 0.642 | 0.797 | 0.786 | 0.419 | 0.278
CC1(C)CCC(CN2CCN(c3ccc(C(=O)NS(=O)(=O)c4ccc(NCC5CCOCC5)c([N+](=O)[O-])c4)c(Oc4cnc5[nH]ccc5c4)c3)CC2)=C(c2ccc(Cl)cc2)C1 [Venetoclax] + COc1cc(Nc2ncc3c(n2)-c2ccc(Cl)cc2C(c2c(F)cccc2OC)=NC3)ccc1C(=O)O [Alisertib] (first compound max 1 µM, 7x7, partner max 10 µM) | 0.507 | 0.736 | 0.847 | 0.861 | 0.287 | 0.516 | 1 | 0.479 | 0.378 | 0.352 | 0.727 | 0.578 | 0.477 | 0.423
CN(CCO)CC[C@H](CSc1ccccc1)Nc1ccc(S(=O)(=O)NC(=O)c2ccc(N3CCC([C@@H](O)c4ccccc4-c4ccc(Cl)cc4)CC3)cc2)cc1S(=O)(=O)C(F)(F)F [AZD4320] + CCN(CCO)CCCOc1ccc2c(Nc3cc(CC(=O)Nc4cccc(F)c4)[nH]n3)ncnc2c1 [AZD2811] (first compound max 1 µM, 7x7, partner max 1 µM) | 0.417 | 0.888 | 0.949 | 0.969 | 0.538 | 0.301 | 1 | 0.877 | 0.27 | 0.0611 | 0.874 | 0.828 | 0.319 | 0.253
Cc1c2c(nn1C)CSCc1cc(n(C)n1)CSc1cc(c3ccccc3c1)OCCCc1c(C(=O)O)n(C)c3c-2c(Cl)ccc13 [AZD5991] + C1CN(CCC1(C(=O)N[C@@H](CCO)C2=CC=C(C=C2)Cl)N)C3=NC=NC4=C3C=CN4 [Capivasertib] (first compound max 1 µM, 7x7, partner max 3 µM) | 0.718 | 0.95 | 0.649 | 0.588 | 0.188 | 0.397 | 0.989 | 0.427 | 0.264 | 0.225 | 1 | 0.354 | 1 | 0.372
